In one series the target is T1, TRα (Homo sapiens, UniProt P10827).
T1 construct: expressed in transfected cells; host or cells: HEK293
T1 sequence (P10827 1-410 isoform P10827-2): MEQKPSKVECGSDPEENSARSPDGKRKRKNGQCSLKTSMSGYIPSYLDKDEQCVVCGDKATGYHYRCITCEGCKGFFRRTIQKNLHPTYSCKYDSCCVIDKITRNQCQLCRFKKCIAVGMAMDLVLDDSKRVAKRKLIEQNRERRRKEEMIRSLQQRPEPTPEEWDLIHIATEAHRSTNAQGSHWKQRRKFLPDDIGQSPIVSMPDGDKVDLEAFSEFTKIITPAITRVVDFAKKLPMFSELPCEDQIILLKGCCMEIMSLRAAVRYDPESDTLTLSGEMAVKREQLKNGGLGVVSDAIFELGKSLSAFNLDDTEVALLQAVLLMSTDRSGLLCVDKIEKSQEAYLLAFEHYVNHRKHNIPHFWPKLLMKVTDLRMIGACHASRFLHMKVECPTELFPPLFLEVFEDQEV
In words: TR reporter-gene assay (Gal4 DBD hybrid, luciferase), TRα. It is filed as cell-based. The following applies: HEK293-derived reporter cells, 24 hr treatment; read-out: TRα EC50. The essentials:
(§1)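 HEK293 reporter cells expressing Gal4-DBD/TR ligand-binding hybrids driving firefly luciferase from a Gal4 UAS; cells pre-incubated 6 h, then treated 24 h at 37 °C in medium with 10% charcoal-stripped FBS (final DMSO 0.1–0.4%), in duplicate. Read-out was luminescence (RLU).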

The target in another series is T2, TRβ (Homo sapiens, UniProt P10828).
T2 construct: expressed in transfected cells; host or cells: HEK293
T2 sequence (P10828 217-461 limits assumed): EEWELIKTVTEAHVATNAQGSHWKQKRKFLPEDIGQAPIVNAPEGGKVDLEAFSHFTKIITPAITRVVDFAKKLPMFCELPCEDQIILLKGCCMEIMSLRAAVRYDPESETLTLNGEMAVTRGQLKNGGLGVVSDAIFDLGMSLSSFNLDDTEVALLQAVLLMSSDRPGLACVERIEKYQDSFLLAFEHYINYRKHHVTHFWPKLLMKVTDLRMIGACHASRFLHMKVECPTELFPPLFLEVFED
Nature of the series: TR reporter-gene assay (Gal4 DBD hybrid, luciferase), TRβ. It is filed as cell-based. The following applies: for EC50: HEK293-derived reporter cells, 24 hr treatment, read-out: TRβ EC50; for T3-SI (selectivity index, EC50 (TRα)/EC50 (TRβ)): class symbols. The essentials: as §1

Series [1] can be described thus: Brain levels of parent acid after dosing prodrug (FIG. 1). It is filed as in vivo. The conditions noted are these: compared with dosing Compound 15 itself. The text has this:
The acid compounds of the present invention (R^1=—OR^1c and R^1c=H) are active agonists selectively activating the TRβ receptor. The amide compounds of the present invention (R^1=—NR^1aR^1b) may act as substrates for the specific hydrolase enzyme fatty acid-amide hydrolase (FAAH), which cleaves the amide, liberating the thyromimetic. Thus, prodrug conversion to drug is enhanced in tissues that express high levels of FAAH such as the central nervous system. […] The ester compounds of the present invention (R^1=—OR^1c and R^1c≠H) are also prodrugs, typically processed through the action of esterases which may exist selectively in specific tissues.

Series [2] concerns the target T3, recombinant human FAAH (rhFAAH) (Homo sapiens, UniProt O00519).
T3 construct: purchased Cayman Chemical (Ann Arbor, MI, USA)
T3 sequence (O00519 1-579): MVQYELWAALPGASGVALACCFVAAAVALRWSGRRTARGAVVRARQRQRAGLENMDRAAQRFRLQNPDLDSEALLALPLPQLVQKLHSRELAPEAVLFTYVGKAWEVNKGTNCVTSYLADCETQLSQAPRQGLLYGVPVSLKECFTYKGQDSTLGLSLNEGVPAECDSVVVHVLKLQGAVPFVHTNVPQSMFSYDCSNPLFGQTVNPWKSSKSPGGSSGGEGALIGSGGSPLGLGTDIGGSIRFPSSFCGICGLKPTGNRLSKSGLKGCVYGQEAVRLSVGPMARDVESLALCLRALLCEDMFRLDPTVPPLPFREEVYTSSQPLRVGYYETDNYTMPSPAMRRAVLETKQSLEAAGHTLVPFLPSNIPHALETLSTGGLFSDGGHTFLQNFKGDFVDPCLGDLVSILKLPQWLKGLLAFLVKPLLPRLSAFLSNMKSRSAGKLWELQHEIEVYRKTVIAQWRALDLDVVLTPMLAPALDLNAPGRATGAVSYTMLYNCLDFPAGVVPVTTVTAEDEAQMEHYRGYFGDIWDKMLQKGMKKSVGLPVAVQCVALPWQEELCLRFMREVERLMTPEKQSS
Nature of the series: FAAH substrate evaluation (formation of acid metabolite, LC-MS/MS). It is filed as biochemical. The following applies: 0.5 ng/μL rhFAAH, 1 μM test compound, pH 8.0, room temperature, 0-60 minutes. In outline:
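Test compound at 1 μM incubated at room temperature with 0.5 ng/μL rhFAAH, 0.1% BSA in Tris-EDTA pH 8.0; parallel incubations with 1 μM PF-3845 inhibitor. Samples quenched at 0-60 min; acid metabolite quantified by LC-MS/MS, ke taken as slope of metabolite concentration versus time.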

As usually defined, the EC50 is the concentration giving half of the maximal effect. As for `CC(C)c1cc(Cc2c(Cl)cc(CCCC(=O)O)cc2Cl)ccc1O` [Compound 16, 4-(3,5-dichloro-4-(4-hydroxy-3-isopropylbenzyl)phenyl)butanoic acid], the EC50 on TRα is more than 1 µM. In addition, at TRβ, the EC50 is 0.1 to 1 µM and the “T3-SI (selectivity index, EC50 (TRα)/EC50 (TRβ))” value is “+++ (T3-SI > 30×)”. Also, in series [1], the “brain levels of the parent acid Compound 15” value was “markedly higher brain levels”.

Regarding `COC(=O)CCc1cc(Cl)c(Cc2ccc(O)c(C(C)c3ccc(F)cc3)c2F)c(Cl)c1` (stereo not drawn) [Compound 17, methyl 3-(3,5-dichloro-4-(2-fluoro-3-(1-(4-fluorophenyl)ethyl)-4-hydroxybenzyl)phenyl)propanoate], the “brain levels of the parent acid Compound 15” value in series [1] is “markedly higher brain levels”.

For the molecule `CNC(=O)CSCc1cc(C)c(Cc2ccc(O)c(C(C)C)c2)c(Cl)c1F` [Compound 217, 2-((3-chloro-2-fluoro-4-(4-hydroxy-3-isopropylbenzyl)-5-methylbenzyl)thio)-N-methylacetamide], the EC50 on TRα was more than 1 µM. Moreover, at TRβ, the EC50 is more than 1 µM and the “T3-SI (selectivity index, EC50 (TRα)/EC50 (TRβ))” value was “++ (3× < T3-SI ≤ 30×)”. In series [2], the “ke, observed rate constant for the acid metabolite formation” value is “C (ke is greater than 2.5)”.

These data come from patent publication US12528761B2, “Thyromimetics” (Autobahn Therapeutics, Inc., priority 2020, dated 2026).
